Columns and labels:
Assay in all cases: relative viability (nuclei count vs DMSO), 5 days (fraction); higher = more cells survive
ChaGo-K-1 = system: ChaGo-K-1
Summary of the method: (§1)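 A single step with final 0.05% Triton X-100, 1% formaldehyde and 1 ug/ml Hoechst fixed the cells and stained nuclei 5 days after treatment. Lung cancer cell lines in 1536-well plates had been treated by pin tool the day after seeding with one drug alone or a fixed anchor-drug dose plus five library-drug doses (not always all listed) in √10 steps, and nuclei were counted on 4× images. Relative viability is the ratio of nuclei in treated wells to nuclei in vehicle wells, taken as the median of duplicate plates.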

EMC-BAC-2 = system: EMC-BAC-2
Summary of the method: as §1

EPLC-272H = system: EPLC-272H
Summary of the method: as §1

H3255 = system: H3255
Summary of the method: as §1

HCC-44 = system: HCC-44
Summary of the method: as §1

HCC-827 = system: HCC-827
Summary of the method: as §1

LCLC-103H = system: LCLC-103H
Summary of the method: as §1

LCLC-97TM1 = system: LCLC-97TM1
Summary of the method: as §1

NCI-H1355 = system: NCI-H1355
Summary of the method: as §1

NCI-H1395 = system: NCI-H1395
Summary of the method: as §1

NCI-H1563 = system: NCI-H1563
Summary of the method: as §1

NCI-H1651 = system: NCI-H1651
Summary of the method: as §1

NCI-H1793 = system: NCI-H1793
Summary of the method: as §1

NCI-H1944 = system: NCI-H1944
Summary of the method: as §1

NCI-H2023 = system: NCI-H2023
Summary of the method: as §1

NCI-H2085 = system: NCI-H2085
Summary of the method: as §1

NCI-H2087 = system: NCI-H2087
Summary of the method: as §1

NCI-H2405 = system: NCI-H2405
Summary of the method: as §1

NCI-H322M = system: NCI-H322M
Summary of the method: as §1

NCI-H520 = system: NCI-H520
Summary of the method: as §1

NCI-H650 = system: NCI-H650
Summary of the method: as §1

SK-MES-1 = system: SK-MES-1
Summary of the method: as §1

UMC-11 = system: UMC-11
Summary of the method: as §1

## CC1(C)CCC(c2ccc(Cl)cc2)=C(CN2CCN(c3ccc(C(=O)NS(=O)(=O)c4ccc(N[C@H](CCN5CCOCC5)CSc5ccccc5)c(S(=O)(=O)C(F)(F)F)c4)cc3)CC2)C1 [Navitoclax] + COc1cccc2cc(-c3nc([C@H]4CC[C@H](C(=O)O)CC4)n4ncnc(N)c34)[nH]c12 [OSI-027] (partner 0.5 µM)
ChaGo-K-1; first compound 0.005 µM
  relative viability: 0.548
ChaGo-K-1; first compound 0.01581 µM
  relative viability: 0.536
ChaGo-K-1; first compound 0.05 µM
  relative viability: 0.541
ChaGo-K-1; first compound 0.1581 µM
  relative viability: 0.55
ChaGo-K-1; first compound 0.5 µM
  relative viability: 0.6
EMC-BAC-2; first compound 0.005 µM
  relative viability: 0.392
EMC-BAC-2; first compound 0.01581 µM
  relative viability: 0.362
EMC-BAC-2; first compound 0.05 µM
  relative viability: 0.382
EMC-BAC-2; first compound 0.1581 µM
  relative viability: 0.351
EMC-BAC-2; first compound 0.5 µM
  relative viability: 0.372
EPLC-272H; first compound 0.005 µM
  relative viability: 0.296
EPLC-272H; first compound 0.05 µM
  relative viability: 0.323
EPLC-272H; first compound 0.1581 µM
  relative viability: 0.317
EPLC-272H; first compound 0.5 µM
  relative viability: 0.3
H3255; first compound 0.005 µM
  relative viability: 0.629
H3255; first compound 0.01581 µM
  relative viability: 0.643
H3255; first compound 0.05 µM
  relative viability: 0.568
H3255; first compound 0.1581 µM
  relative viability: 0.67
H3255; first compound 0.5 µM
  relative viability: 0.611
HCC-44; first compound 0.05 µM
  relative viability: 0.627
HCC-44; first compound 0.5 µM
  relative viability: 0.404
HCC-827; first compound 0.005 µM
  relative viability: 0.767
HCC-827; first compound 0.01581 µM
  relative viability: 0.951
HCC-827; first compound 0.05 µM
  relative viability: 0.74
HCC-827; first compound 0.1581 µM
  relative viability: 0.761
HCC-827; first compound 0.5 µM
  relative viability: 0.812
LCLC-103H; first compound 0.005 µM
  relative viability: 0.462
LCLC-103H; first compound 0.01581 µM
  relative viability: 0.449
LCLC-103H; first compound 0.05 µM
  relative viability: 0.399
LCLC-103H; first compound 0.1581 µM
  relative viability: 0.479
LCLC-103H; first compound 0.5 µM
  relative viability: 0.533
LCLC-97TM1; first compound 0.005 µM
  relative viability: 0.608
LCLC-97TM1; first compound 0.01581 µM
  relative viability: 0.484
LCLC-97TM1; first compound 0.05 µM
  relative viability: 0.569
LCLC-97TM1; first compound 0.1581 µM
  relative viability: 0.482
LCLC-97TM1; first compound 0.5 µM
  relative viability: 0.601
NCI-H1355; first compound 0.005 µM
  relative viability: 0.447
NCI-H1355; first compound 0.01581 µM
  relative viability: 0.469
NCI-H1355; first compound 0.05 µM
  relative viability: 0.425
NCI-H1355; first compound 0.1581 µM
  relative viability: 0.397
NCI-H1355; first compound 0.5 µM
  relative viability: 0.431
NCI-H1395; first compound 0.005 µM
  relative viability: 0.591
NCI-H1395; first compound 0.01581 µM
  relative viability: 0.77
NCI-H1395; first compound 0.05 µM
  relative viability: 0.601
NCI-H1395; first compound 0.1581 µM
  relative viability: 0.569
NCI-H1395; first compound 0.5 µM
  relative viability: 0.754
NCI-H1563; first compound 0.005 µM
  relative viability: 0.737
NCI-H1563; first compound 0.01581 µM
  relative viability: 0.809
NCI-H1563; first compound 0.05 µM
  relative viability: 0.756
NCI-H1563; first compound 0.1581 µM
  relative viability: 0.824
NCI-H1563; first compound 0.5 µM
  relative viability: 0.812
NCI-H1651; first compound 0.005 µM
  relative viability: 0.685
NCI-H1651; first compound 0.01581 µM
  relative viability: 0.795
NCI-H1651; first compound 0.05 µM
  relative viability: 0.813
NCI-H1651; first compound 0.1581 µM
  relative viability: 0.782
NCI-H1651; first compound 0.5 µM
  relative viability: 0.721
NCI-H1793; first compound 0.005 µM
  relative viability: 0.267
NCI-H1793; first compound 0.01581 µM
  relative viability: 0.414
NCI-H1793; first compound 0.1581 µM
  relative viability: 0.273
NCI-H1793; first compound 0.5 µM
  relative viability: 0.261
NCI-H1944; first compound 0.005 µM
  relative viability: 0.401
NCI-H1944; first compound 0.01581 µM
  relative viability: 0.495
NCI-H1944; first compound 0.05 µM
  relative viability: 0.364
NCI-H1944; first compound 0.1581 µM
  relative viability: 0.376
NCI-H1944; first compound 0.5 µM
  relative viability: 0.419
NCI-H2023; first compound 0.005 µM
  relative viability: 0.405
NCI-H2023; first compound 0.01581 µM
  relative viability: 0.446
NCI-H2023; first compound 0.05 µM
  relative viability: 0.338
NCI-H2023; first compound 0.1581 µM
  relative viability: 0.38
NCI-H2023; first compound 0.5 µM
  relative viability: 0.416
NCI-H2085; first compound 0.005 µM
  relative viability: 0.664
NCI-H2085; first compound 0.01581 µM
  relative viability: 0.871
NCI-H2085; first compound 0.05 µM
  relative viability: 0.544
NCI-H2085; first compound 0.1581 µM
  relative viability: 0.846
NCI-H2085; first compound 0.5 µM
  relative viability: 0.757
NCI-H2087; first compound 0.005 µM
  relative viability: 0.47
NCI-H2087; first compound 0.01581 µM
  relative viability: 0.679
NCI-H2087; first compound 0.1581 µM
  relative viability: 0.537
NCI-H2087; first compound 0.5 µM
  relative viability: 0.794
NCI-H2405; first compound 0.005 µM
  relative viability: 0.664
NCI-H2405; first compound 0.01581 µM
  relative viability: 0.682
NCI-H2405; first compound 0.05 µM
  relative viability: 0.644
NCI-H2405; first compound 0.1581 µM
  relative viability: 0.632
NCI-H2405; first compound 0.5 µM
  relative viability: 0.558
NCI-H322M; first compound 0.005 µM
  relative viability: 0.536
NCI-H322M; first compound 0.01581 µM
  relative viability: 0.696
NCI-H322M; first compound 0.05 µM
  relative viability: 0.552
NCI-H322M; first compound 0.1581 µM
  relative viability: 0.545
NCI-H322M; first compound 0.5 µM
  relative viability: 0.706
NCI-H520; first compound 0.01581 µM
  relative viability: 0.231
NCI-H520; first compound 0.05 µM
  relative viability: 0.318
NCI-H520; first compound 0.1581 µM
  relative viability: 0.201
NCI-H520; first compound 0.5 µM
  relative viability: 0.31
NCI-H650; first compound 0.005 µM
  relative viability: 0.525
NCI-H650; first compound 0.01581 µM
  relative viability: 0.569
NCI-H650; first compound 0.05 µM
  relative viability: 0.525
NCI-H650; first compound 0.1581 µM
  relative viability: 0.498
NCI-H650; first compound 0.5 µM
  relative viability: 0.547
SK-MES-1; first compound 0.005 µM
  relative viability: 0.624
SK-MES-1; first compound 0.01581 µM
  relative viability: 0.681
SK-MES-1; first compound 0.05 µM
  relative viability: 0.525
SK-MES-1; first compound 0.1581 µM
  relative viability: 0.579
SK-MES-1; first compound 0.5 µM
  relative viability: 0.63
UMC-11; first compound 0.005 µM
  relative viability: 0.462
UMC-11; first compound 0.01581 µM
  relative viability: 0.501
UMC-11; first compound 0.05 µM
  relative viability: 0.471
UMC-11; first compound 0.1581 µM
  relative viability: 0.422
UMC-11; first compound 0.5 µM
  relative viability: 0.234
